The source made the active and inactive calls. The rule behind the calls is not given here.
Experiments:
[1] = Toxicity in female ICR mouse assessed as change in organ coefficient of heart at 20 mg/kg, ip […] (reference value: 0.006+/-0.002); format: organism-based; conditions: in vivo
[2] = Drug localization in nucleus of human SK-N-SH cells assessed as increase in green fluorescence at 6 uM measured after 48 hrs by DAPI staining based fluorescence microscopic analysis; format: ADME, subcellular
SK-N-SH [3] = assay: Induction of apoptosis in human SK-N-SH cells assessed as increase in apoptotic cells at 3 to 9 uM measured after 48 hrs by FITC and PI staining based flow cytometry analysis relative to control; format: functional; conditions: dose 3-9 µM
SK-N-SH [4] = assay: Antiproliferative activity against human SK-N-SH cells assessed as reduction in cell proliferation at 1 uM incubated for 60 hrs by CCK-8 method relative to control; format: functional; set-up: scale not given: the % may be the effect or the level left
[5] = Toxicity in female ICR mouse assessed as histomorphological changes in heart at 10 to 20 mg/kg, ip H and E staining based analysis; format: organism-based; conditions: in vivo, dose 10-20 mg/kg
[6] = Drug localization in mitochondria of living human SK-N-SH cells assessed as colocalization at 6 uM incubated for 48 hrs by DAPI staining based fluorescence microscopic analysis; format: ADME
SK-N-SH [7] = assay: Downregulation of caspase-3 expression in human SK-N-SH cells at 3 to 9 uM measured after 48 hrs by Western blot analysis; format: functional, cell-based; conditions: dose 3-9 µM
[8] = (§1) Upregulation of E-cadherin expression in human SK-N-SH cells measured after 48 hrs by Western blot analysis relative to control; format: functional; conditions: dose 3-9 µM, at 3 to 9 µM
SK-N-SH [9] = assay: as §1; format: functional; conditions: dose 3-9 µM
N2a [10] = assay: Antitumor activity against mouse N2a cells implanted in female ICR mouse model assessed as tumor inhibition rate at 20 mg/kg, ip measured upto 8 days relative to control; format: functional; set-up: scale not given: the % may be the effect or the level left; conditions: time <= 8 day
[11] = Downregulation of Beta-catenin expression in human SK-N-SH cells at 6 uM measured after 48 hrs by Western blot analysis relative to control; format: functional
[12] = Downregulation of Beta-catenin expression in human SK-N-SH cells at 9 uM measured after 48 hrs by Western blot analysis relative to control; format: functional
SK-N-SH [13] = assay: Antiproliferative activity against human SK-N-SH cells assessed as reduction in cell proliferation at 0.5 uM incubated for 60 hrs by CCK-8 method relative to control; format: functional; set-up: scale not given: the % may be the effect or the level left
SK-N-SH [14] = assay: Induction of apoptosis in human SK-N-SH cells assessed as increase in apoptotic cells measured after 48 hrs by FITC and PI staining based flow cytometry analysis; format: functional, cell-based; conditions: dose 3-9 µM
N2a [15] = assay: Antitumor activity against mouse N2a cells implanted in female ICR mouse model assessed as suppression of tumor cell proliferation administered as ip dose measured upto 8 days by Ki67 staining based analysis; format: functional, organism-based; conditions: dose 10-20 mg/kg, time <= 8.0 day
[16] = Downregulation of vimentin expression in human SK-N-SH cells at 3 to 9 uM measured after 48 hrs by Western blot analysis relative to control; format: functional; conditions: dose 3-9 µM
[17] = Toxicity in female ICR mouse assessed as change in organ coefficient of liver at 20 mg/kg, ip […] (reference value: 0.058+/-0.010); format: organism-based; conditions: in vivo
[18] = Antiproliferative activity against human Embryonic lung cell assessed as inhibition of cell growth incubated for 60 hrs by CCK-8 method; format: toxicity, cell-based
[19] = Toxicity in female ICR mouse assessed as histomorphological changes in liver at 10 to 20 mg/kg, ip H and E staining based analysis; format: organism-based; conditions: in vivo, dose 10-20 mg/kg
[20] = Toxicity in female ICR mouse assessed as abnormal movement at 10 to 20 mg/kg, ip; format: organism-based; conditions: in vivo, dose 10-20 mg/kg
[21] = Toxicity in female ICR mouse assessed as change in organ coefficient of kidney at 20 mg/kg, ip […] (reference value: 0.007); format: organism-based; conditions: in vivo
N2a [22] = assay: Antitumor activity against mouse N2a cells implanted in female ICR mouse model assessed as reduction in tumor weight at 20 mg/kg, ip measured upto 8 days (reference value: 0.9 +/-0.26 g); format: functional; conditions: time <= 8 day
SK-N-SH [23] = assay: Upregulation of Bax expression in human SK-N-SH cells at 3 to 9 uM measured after 48 hrs by Western blot analysis; format: functional, cell-based; conditions: dose 3-9 µM
Quadruplex DNA = assay: Binding affinity to BCL-2 G4 DNA (unknown origin) assessed as dissociation constant by SPR analysis; format: nucleic-acid assay
SK-N-SH [24] = assay: Inhibition of cell invasion in human SK-N-SH cells at 2 uM measured after 48 hrs by crystal violet staining based microscopic analysis relative to control; format: functional
SK-N-SH [25] = assay: Inhibition of colony formation in human SK-N-SH cells assessed as reduction in colony size at 0.5 to 2 uM preincubated for 24 hrs followed by incubation under compound free medium for 8 days by crystal violet staining based analysis; format: functional, cell-based; conditions: dose 0.5-2 µM
SK-N-SH [26] = assay: Upregulation of AIF level in human SK-N-SH cells at 6 uM measured after 48 hrs by immunofluorescence staining based microscopic analysis; format: functional, cell-based
SK-N-SH [27] = assay: Inhibition of cell migration in human SK-N-SH cells at 0.5 to 2 uM measured after 48 hrs by crystal violet staining based microscopic analysis; format: functional; conditions: dose 0.5-2 µM
[28] = Downregulation of N-cadherin expression in human SK-N-SH cells at 6 uM measured after 48 hrs by Western blot analysis relative to control; format: functional
N2a [29] = assay: Antiproliferative activity against mouse N2a cells assessed as inhibition of cell growth incubated for 60 hrs by CCK-8 method; format: functional, cell-based
N2a [30] = assay: Antitumor activity against mouse N2a cells implanted in female ICR mouse model assessed as reduction in tumor weight at 10 mg/kg, ip measured upto 8 days (reference value: 0.9 +/-0.26 g); format: functional; conditions: time <= 8 day
SK-N-SH [31] = assay: Induction of mitochondrial dysfunction in human SK-N-SH cells assessed as appearance of fragmented mitochondria at 6 uM measured after 48 hrs by fluorescence microscopic analysis; format: functional, cell-based

N#C[Se]CCCOc1ccc2cc(C(=O)N3N=C(c4ccc(F)cc4)CC3c3ccc(F)cc3)c(=O)oc2c1 (configuration not stated)
Activity [1]: 0.005 | Drug uptake [2]: Not_active | Activity (SK-N-SH [3]): 47.4% | Activity (SK-N-SH [4]): 63.8% | Activity [5]: Non-toxic | Drug uptake [6]: Active | Activity (SK-N-SH [7]): Active | Activity [8]: 32.3% | Activity (SK-N-SH [9]): Dose-dependent-effect | Activity (N2a [10]): 93.3% | Activity [11]: 70.8% | Activity [12]: 42.2% | Activity (SK-N-SH [13]): 24.1% | Activity (SK-N-SH [14]): Dose-dependent-effect | Activity (N2a [15]): Dose-dependent-effect | Activity [16]: 33.1% | Activity [17]: 0.059 | Activity [18]: Non-toxic | Activity [19]: Non-toxic | Activity [20]: Non-toxic | Activity [21]: 0.008 | Activity (N2a [22]): 0.06 g | Activity (SK-N-SH [23]): Active | Kd (Quadruplex DNA): 0.0785 µM | inhibition at 2 µM (SK-N-SH [24]): 78.4% | inhibition (SK-N-SH [25]): Active | Activity (SK-N-SH [26]): Active | inhibition (SK-N-SH [27]): Active | Activity [28]: 63.1% | IC50 (N2a [29]): 17.9 µM | Activity (N2a [30]): 0.19 g | Activity (SK-N-SH [31]): Active

Reference: ChEMBL document CHEMBL6103579, “Antiproliferative activity of selenium-enriched coumarin derivatives on the SK-N-SH neuroblastoma cell line: Mechanistic insights” (Eur J Med Chem, 2025)
